≈ marks a conversion by molar mass, not a printed value. Read-outs that look alike come from different tables or passages of the source. Non-standard residues stand in square brackets, D forms with d. Residues, ends and D or L forms follow the SMILES beside them. No end group written: not given here. Ahx = NCCCCCC(=O)O
Experiments:
[1] = system: C. neoformans 2807 clinical isolate; assay: microbe, parasite or virus in culture; type: cell-based, Cryptococcus neoformans var. grubii; details: 72 h; for MICa (MIC of the chimeric peptide alone): 2807 clinical isolate
Protocol: (§1) The combined effect of FLC with the chimeric peptides was evaluated for the reference strain and one clinical isolate. The amounts of 50 µL of the chimeric peptide and 50 µL of antifungal (FLC) were added to the plates at final concentrations of: 2xMIC, MIC, 1/2xMIC, 1/4xMIC, 1/6xMIC, and 1/8xMIC. A yeast cell suspension was added at 0.5–2.5 × 10^3 cells/mL in 96-well plates. It was incubated for 72 h with shaking at 110 rpm and at 30 °C.
(§2) The effect of the combination of the two drugs was determined by calculating the fractional inhibitory concentration index (∑FIC), which was calculated as follows: ∑FIC = (MICcombined/MICalone) FLC + (MICcombined/MICalone) peptide.
(§3) FIC values ≤0.5 was considered as synergistic effect, 0.5 < FIC < 1 an additive effect, 1 < FIC < 4 indifference, and FIC ≥ 4 an antagonistic effect.

[2] = system: C. neoformans H99; assay: microbe, parasite or virus in culture; type: cell-based, Cryptococcus neoformans var. grubii; details: for MICa (MIC of the chimeric peptide alone): H99, 72 h
Protocol: as §1, §2, §3

[3] = system: L929 murine fibroblast cells; type: cell-based, mouse; details: 2 h
Protocol: The cell line used for this approach was the mouse fibroblast L929. The cells were washed with saline solution, trypsinized, and incubated for 5 min at 37 °C with a 5% CO2 atmosphere. The fibroblast cell suspension was prepared at a concentration of 1 × 10^6 cells in 7 mL of RPMI medium supplemented with fetal bovine serum (the number of cells needed for one plate) and dispensed into 96-well plates. Then, 70 µL of cells was added per well and incubated overnight at 37 °C and 5% CO2. Dilutions of each peptide chimera (3.125–200 µg/mL) were formulated, and 50 µL of each were added to the plate in quadruplicate and incubated for 2 h at 37 °C and 5% CO2. Control wells consisted of untreated cell cultures. In addition, 10 µL of MTT was added to each of the wells, and the plate was incubated for 4 h at 37 °C with a 5% CO2 atmosphere. Following that, the total volume of each well was withdrawn, 100 µL of DMSO was added, and it was incubated for 40 min at 37 °C with 5% CO2.
Plates were read with an iMark™ microplate reader (Bio-rad, Hercules, CA, USA) measuring the absorbance at 595 nm. Wells of untreated fibroblast cells were considered to be the negative control.

[4] = system: C. neoformans var. grubii strains; type: cell-based, Cryptococcus neoformans var. grubii; details: 72 h
Protocol: (§4) The in vitro susceptibility of chimeric, precursor peptides and FLC was evaluated by determining the minimal inhibitory concentration (MIC) on the basis of the broth microdilution method, according to document M27-A3 of the Clinical Laboratory Standards Institute (CLSI). It was diluted in RPMI-1640 medium (Sigma-Aldrich) at concentrations ranging from 1.6 to 100 μg/mL. The initial suspension (0.5 McFarland) was mixed into saline solution. Subsequently, a 1:50 dilution in saline solution and a 1:20 dilution in RPMI-1640 were tested (0.5–2.5 × 10^3 cells/mL). The negative control was the medium only without inoculum, and the positive control was the medium plus inoculum. The incubation time was 72 h at 30 °C at 110 rpm. The MIC values were determined by measuring the absorbance at 595 nm in a microplate reader and were defined as the lowest concentration of peptides capable of inhibiting growth equal to or higher than 50% in relation to the positive control. The MIC for fluconazole (FLC; 0.125–64 μg/mL; Pfizer, Brazil) was also determined according to M27-A3. The lowest concentration of the antifungal agent that was able to inhibit growth by 50% with respect to the positive control was considered the MIC.

[5] = system: C. neoformans var. grubii strains; type: cell-based, Cryptococcus neoformans var. grubii; details: 74 h
Protocol: (§5) The minimal fungicidal concentration (MFC) was evaluated after the yeast’s exposure to the chimeras (1.6 to 100 μg/mL), as described above. […] The MFC was defined as the lowest peptide concentration at which ≤1 colony was visible on the agar plate.

[6] = system: normal human T lymphocytes, fibroblasts, and endothelial cells; details: LfcinB at 200 μg/mL; cited from earlier work
Text: One of the main concerns about the use of antimicrobial peptides in systemic treatments is their toxicity.

[7] = system: C. neoformans var. grubii H99; assay: microbe, parasite or virus in culture; type: cell-based, Cryptococcus neoformans var. grubii
Protocol: as §4

[8] = system: C. neoformans var. grubii clinical isolate 2643; assay: microbe, parasite or virus in culture; type: cell-based, Cryptococcus neoformans var. grubii
Protocol: as §4

[9] = system: C. neoformans var. grubii clinical isolate 2807; assay: microbe, parasite or virus in culture; type: cell-based, Cryptococcus neoformans var. grubii
Protocol: as §4

[10] = system: C. neoformans var. grubii clinical isolate 3279; assay: microbe, parasite or virus in culture; type: cell-based, Cryptococcus neoformans var. grubii
Protocol: as §4

[11] = system: C. neoformans var. grubii H99; type: cell-based, Cryptococcus neoformans var. grubii; details: var. grubii H99, 74 h
Protocol: as §5

[12] = system: C. neoformans var. grubii clinical isolate 2807; type: cell-based, Cryptococcus neoformans var. grubii; details: var. grubii clinical isolate 2807, 74 h
Protocol: as §5

[13] = system: C. neoformans var. grubii mutant CNAG_00730; assay: MIC, broth microdilution (CLSI M27-A3); type: cell-based, Cryptococcus neoformans var. grubii; details: Cryptococcus neoformans, 72 h
Protocol: as §4

[14] = system: C. neoformans var. grubii mutant CNAG_01580; assay: MIC, broth microdilution (CLSI M27-A3); type: cell-based, Cryptococcus neoformans var. grubii; details: Cryptococcus neoformans, 72 h
Protocol: as §4

[15] = system: C. neoformans var. grubii mutant CNAG_02050; assay: MIC, broth microdilution (CLSI M27-A3); type: cell-based, Cryptococcus neoformans var. grubii; details: Cryptococcus neoformans, 72 h
Protocol: as §4

[16] = system: C. neoformans var. grubii mutant CNAG_02915; assay: MIC, broth microdilution (CLSI M27-A3); type: cell-based, Cryptococcus neoformans var. grubii; details: Cryptococcus neoformans, 72 h
Protocol: as §4

[17] = system: C. neoformans var. grubii mutant CNAG_04693; assay: MIC, broth microdilution (CLSI M27-A3); type: cell-based, Cryptococcus neoformans var. grubii; details: Cryptococcus neoformans, 72 h
Protocol: as §4

[18] = system: C. neoformans var. grubii mutant CNAG_04804; assay: MIC, broth microdilution (CLSI M27-A3); type: cell-based, Cryptococcus neoformans var. grubii; details: Cryptococcus neoformans, 72 h
Protocol: as §4

[19] = system: C. neoformans var. grubii mutant CNAG_05150; assay: MIC, broth microdilution (CLSI M27-A3); type: cell-based, Cryptococcus neoformans var. grubii; details: Cryptococcus neoformans, 72 h
Protocol: as §4

[20] = system: C. neoformans var. grubii mutant CNAG_06925; assay: MIC, broth microdilution (CLSI M27-A3); type: cell-based, Cryptococcus neoformans var. grubii; details: Cryptococcus neoformans, 72 h
Protocol: as §4

[21] = system: C. neoformans var. grubii H99; assay: Fluorescent staining for yeast viability (LIVE/DEAD, FUN1 and calcofluor white); type: cell-based, Cryptococcus neoformans var. grubii; details: 72 h
Protocol: Since the antifungal activity of the two chimeras was similar, it was decided to evaluate cell viability in the reference strain using one of the two chimeras by means of confocal microscopy. For this reason, the C6 chimera was evaluated in the H99 strain by staining with FUN1 and calcofluor white.
A commercial LIVE/DEAD™ yeast viability kit (Invitrogen, US) was used to analyze yeast viability after treatment with one of the chimeric peptides and FLC for 72 h at concentrations of 3.125, 6.25, 12.5, and 25 μg/mL and 4 and 8 μg/mL, respectively. In the dead control, the yeasts were treated with 5% hypochlorite for 10 min. Untreated yeast cells were used as a live control. Yeast cells were suspended in phosphate buffered saline (PBS). FUN-1 cell stains (10 μM) and calcofluor white (25 μM) were added to the yeast cell suspensions. After incubation in the dark at 30 °C for 30 min, the stained yeast was analyzed under a fluorescence microscope (Olympus FV1000) using filters set to excitation at approximately 488, 532, and 405 nm at 60× magnification. Fungal cell viability was determined by means of fluorescence analysis in at least 10 fields. Staining and interpretation of fluorescence were performed according to the manufacturer’s instructions.

[22] = system: mutants of C. neoformans var. grubii; assay: MIC, mutants (summary statements); type: cell-based, Cryptococcus neoformans var. grubii; details: all mutants
Protocol: as §4

[23] = var. grubii clinical isolate 2807, 72 h

Compound: CC(C)C[C@H](NC(=O)[C@H](CC(C)C)NC(=O)[C@H](CCCNC(=N)N)NC(=O)[C@H](CCCNC(=N)N)NC(=O)[C@H](CC(C)C)NC(=O)[C@H](CC(C)C)NC(=O)[C@H](CCCNC(=N)N)NC(=O)CCCCCNC(=O)[C@H](CCCCN)NC(=O)[C@H](Cc1c[nH]c2ccccc12)NC(=O)[C@H](CCC(N)=O)NC(=O)[C@H](Cc1c[nH]c2ccccc12)NC(=O)[C@H](CCCCN)NC(=O)[C@@H](N)CCCCN)C(=O)N[C@@H](CCCNC(=N)N)C(N)=O [Chimera C6] (H-KKWQWK[Ahx]RLLRRLLR-NH2)
- MICa (MIC of the chimeric peptide alone) [1]: 6.25 µg/mL
- MICa (MIC of the chimeric peptide alone) [2]: 6.25 µg/mL
- IC50 (fibroblast viability) [3]: 67.44 µg/mL (≈ 32.2 µM)
- MIC [4]: 6.25 µg/mL (≈ 2.99 µM)
- MFC [5]: 6.25 µg/mL (≈ 2.99 µM)

Compound: LfcinB: bovine lactoferricin, antimicrobial peptide (FKCRRWQWRMKKLGAPSITCVRRAF; ends and bridges not checked; cysteine pairing not given here; UniProt P24627 36-60, looked up)
- toxicity for normal human cell cultures [6]: not toxic

Compound: RLLRRLLR [BFII (32–35)Pal]
- MIC ([7]; var. grubii H99, 72 h): > 46 µM
- MIC ([8]; var. grubii clinical isolate 2643, 72 h): > 46 µM
- MIC [9, 23]: > 46 µM
- MIC ([10]; var. grubii clinical isolate 3279, 72 h): > 46 µM
- MFC [11]: > 46 µM
- MFC [12]: > 46 µM

Compound: CC(C)C[C@H](NC(=O)[C@H](CC(C)C)NC(=O)[C@H](CCCCN)NC(=O)[C@H](CCCCN)NC(=O)[C@H](CC(C)C)NC(=O)[C@H](CC(C)C)NC(=O)[C@H](CCCCN)NC(=O)CCCCCNC(=O)[C@H](CCCNC(=N)N)NC(=O)[C@H](Cc1c[nH]c2ccccc12)NC(=O)[C@H](CCC(N)=O)NC(=O)[C@H](Cc1c[nH]c2ccccc12)NC(=O)[C@H](CCCNC(=N)N)NC(=O)[C@@H](N)CCCNC(=N)N)C(=O)N[C@@H](CCCCN)C(N)=O [Chimera C5] (H-RRWQWR[Ahx]KLLKKLLK-NH2)
- MICa (MIC of the chimeric peptide alone) [1]: 12.5 µg/mL
- MICa (MIC of the chimeric peptide alone) [2]: 12.5 µg/mL
- IC50 (fibroblast viability) [3]: 93.35 µg/mL (≈ 45.2 µM)
- MIC [4]: 12.5 µg/mL (≈ 6.05 µM)
- MFC [5]: 12.5 µg/mL (≈ 6.05 µM)

Compound: KLLKKLLK [[K]-BFII (32–35)Pal]
- MIC ([7]; var. grubii H99, 72 h): 114 µM
- MIC [9, 23]: 114 µM
- MFC [11]: 114 µM
- MFC [12]: 114 µM

Compound: KKWQWK [[K]-LfcinB (20–25)]
- MIC ([7]; var. grubii H99, 72 h): 111 µM
- MIC [9, 23]: 111 µM
- MFC [11]: 111 µM
- MFC [12]: 111 µM

Compound: OC(Cn1cncn1)(Cn1cncn1)c1ccc(F)cc1F [FLC, fluconazole]
- MIC ([7]; Cryptococcus neoformans, H99 reference strain, broth microdilution RPMI-1640, 72 h, 30 °C, ≥50% inhibition (A595), read-out: MIC): 4 µg/mL
- susceptibility of the strain to FLC ([7]; H99 strain): sensitive
- MIC ([8]; Cryptococcus neoformans, clinical isolate 2643, broth microdilution RPMI-1640, 72 h, 30 °C, ≥50% inhibition, read-out: MIC): 8 µg/mL
- MIC ([9]; Cryptococcus neoformans, clinical isolate 2807, broth microdilution RPMI-1640, 72 h, 30 °C, ≥50% inhibition, read-out: MIC): 16 µg/mL
- MIC ([10]; Cryptococcus neoformans, clinical isolate 3279, broth microdilution RPMI-1640, 72 h, 30 °C, ≥50% inhibition, read-out: MIC): 16 µg/mL
- MIC [13]: 0.75 µg/mL (≈ 2.45 µM)
- MIC [14]: 0.25 µg/mL (≈ 0.816 µM)
- MIC [15]: 1 µg/mL (≈ 3.27 µM)
- MIC [16]: 1.5 µg/mL (≈ 4.9 µM)
- MIC [17]: 1 µg/mL (≈ 3.27 µM)
- MIC [18]: 1 µg/mL (≈ 3.27 µM)
- MIC [19]: 2 µg/mL (≈ 6.53 µM)
- MIC [20]: 1 µg/mL (≈ 3.27 µM)
- cell population versus live control ([21]; fluconazole 4 μg/mL (MIC)): a decrease in the cell population was observed
- cell decrease ([21]; fluconazole 8 μg/mL): > 80%
- MIC ([1]; Cryptococcus neoformans, clinical isolate 2807, checkerboard, 30 °C, 110 rpm, read-out: MICb (MIC of FLC alone)): 16 µg/mL
- MIC ([2]; Cryptococcus neoformans, H99, checkerboard, 72 h, 30 °C, 110 rpm, read-out: MICb (MIC of FLC alone)): 4 µg/mL
- susceptibility of the strains to FLC [22]: sensitive
